Source: the supplement of paper PMC10307832

What was measured:
Assay in all cases: relative viability (nuclei count vs DMSO), 5 days (fraction); higher = more cells survive
Tivantinib + Luminespib = compound: O=C1NC(=O)[C@@H](c2cn3c4c(cccc24)CCC3)[C@@H]1c1c[nH]c2ccccc12 [Tivantinib] + CCNC(=O)c1noc(-c2cc(C(C)C)c(O)cc2O)c1-c1ccc(CN2CCOCC2)cc1 [Luminespib] (partner 0.01 µM)
Outline: (§1)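 Relative viability was taken as the ratio of nuclei in treated wells to nuclei in vehicle wells. Lung cancer cell lines in 1536-well plates received compounds by pin tool one day after seeding, either one drug alone or a fixed anchor-drug dose plus five library-drug doses (not always all listed) in √10 steps. Nuclei were counted on 4× images after 5 days of treatment, and values are medians of duplicate plates.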

Crenolanib + Lapatinib = compound: CC1(COc2ccc3c(c2)ncn3-c2ccc3cccc(N4CCC(N)CC4)c3n2)COC1 [Crenolanib] + CS(=O)(=O)CCNCc1ccc(-c2ccc3ncnc(Nc4ccc(OCc5cccc(F)c5)c(Cl)c4)c3c2)o1 [Lapatinib] (partner 2 µM)
Outline: as §1

Tivantinib + Phenformin = compound: O=C1NC(=O)[C@@H](c2cn3c4c(cccc24)CCC3)[C@@H]1c1c[nH]c2ccccc12 [Tivantinib] + N=C(N)NC(=N)NCCc1ccccc1 [Phenformin] (partner 250 µM)
Outline: as §1

Tivantinib + Palbociclib = compound: O=C1NC(=O)[C@@H](c2cn3c4c(cccc24)CCC3)[C@@H]1c1c[nH]c2ccccc12 [Tivantinib] + CC(=O)c1c(C)c2cnc(Nc3ccc(N4CCNCC4)cn3)nc2n(C2CCCC2)c1=O [Palbociclib] (partner 0.5 µM)
Outline: as §1

| Cell Line | relative viability (Tivantinib + Luminespib; first compound 0.01 µM) | relative viability (Tivantinib + Luminespib; first compound 0.03162 µM) | relative viability (Tivantinib + Luminespib; first compound 0.1 µM) | relative viability (Tivantinib + Luminespib; first compound 0.3162 µM) | relative viability (Crenolanib + Lapatinib; first compound 0.01 µM) | relative viability (Crenolanib + Lapatinib; first compound 0.03162 µM) | relative viability (Crenolanib + Lapatinib; first compound 0.1 µM) | relative viability (Crenolanib + Lapatinib; first compound 0.3162 µM) | relative viability (Crenolanib + Lapatinib; first compound 1 µM) | relative viability (Tivantinib + Phenformin; first compound 0.01 µM) | relative viability (Tivantinib + Phenformin; first compound 0.03162 µM) | relative viability (Tivantinib + Phenformin; first compound 0.1 µM) | relative viability (Tivantinib + Phenformin; first compound 0.3162 µM) | relative viability (Tivantinib + Palbociclib; first compound 0.01 µM) | relative viability (Tivantinib + Palbociclib; first compound 0.03162 µM) | relative viability (Tivantinib + Palbociclib; first compound 0.1 µM) | relative viability (Tivantinib + Palbociclib; first compound 0.3162 µM) |
| --- | --- | --- | --- | --- | --- | --- | --- | --- | --- | --- | --- | --- | --- | --- | --- | --- | --- |
| RERF-LC-KJ | 1.25 | 1.29 | 1.24 | 1.27 | 0.917 | 0.886 | 0.903 | 0.872 | 0.812 | 0.454 | 0.442 | 0.407 | 0.335 | 0.644 | 1.1 | 1.01 | 0.647 |
| EMC-BAC-2 | 1.17 | 1.17 | 1.18 | 1.08 | 0.912 | 0.862 | 0.882 | 0.931 | 0.81 | 0.566 | 0.453 | 0.528 | 0.528 | 0.518 | 0.512 | 0.503 | 0.527 |
| LK-2 | 0.217 |  | 0.208 | 0.197 | 0.942 | 0.812 | 0.935 | 0.938 | 0.851 | 0.44 |  | 0.314 | 0.339 | 0.643 | 0.472 | 0.69 | 0.369 |
| NCI-H2228 |  | 0.152 | 0.168 | 0.125 | 0.964 | 0.876 | 0.969 | 1.27 | 1.28 |  | 0.296 | 0.283 | 0.223 | 0.895 | 0.794 | 0.652 | 0.602 |
| NCI-H322M | 0.977 | 0.874 | 0.737 |  | 0.613 | 0.64 | 0.543 | 0.567 | 0.587 | 0.753 | 0.708 | 0.754 |  | 0.519 | 0.484 | 0.475 |  |
| NCI-H1993 | 1 | 0.822 | 0.421 | 0.56 | 0.805 | 0.759 | 0.856 | 0.787 | 0.784 | 0.446 | 0.503 | 0.514 | 0.605 | 0.701 | 0.621 | 0.583 | 0.567 |
| NCI-H1944 | 0.712 | 0.609 | 0.697 | 0.608 | 0.814 | 0.809 | 0.839 | 0.617 | 0.698 | 0.189 | 0.179 | 0.192 | 0.228 | 0.366 | 0.327 | 0.324 | 0.297 |
| LXF-289 | 0.757 | 0.646 | 0.599 | 0.723 | 0.887 | 0.918 | 0.889 | 0.908 | 0.838 | 0.536 | 0.542 | 0.528 | 0.504 | 0.563 | 0.563 | 0.545 | 0.584 |
| HCC-366 |  |  |  |  | 0.954 | 1.09 | 0.916 | 1.31 | 0.915 | 0.63 | 0.637 | 0.598 | 0.635 | 0.434 | 0.362 | 0.399 | 0.337 |
| HCC-78 |  |  |  |  | 0.138 | 0.637 | 0.705 | 0.71 | 0.467 | 0.682 | 0.711 | 0.689 | 0.533 | 0.49 | 0.445 | 0.448 | 0.426 |
| NCI-H1299 |  |  |  |  | 0.928 | 1.01 | 0.905 | 0.862 | 0.887 |  |  |  |  |  |  |  |  |
| LCLC-103H | 1.02 | 0.938 | 0.976 | 0.856 |  |  |  |  |  | 0.327 | 0.312 | 0.378 | 0.374 | 0.477 | 0.449 | 0.486 | 0.409 |
| IA-LM |  |  |  |  | 0.741 | 0.951 | 0.732 | 0.978 | 1.51 |  |  |  |  |  |  |  |  |
| ChaGo-K-1 | 0.679 | 0.539 | 0.576 | 0.597 |  |  |  |  |  | 0.586 | 0.442 | 0.483 | 0.542 | 0.95 | 0.946 | 0.93 | 0.925 |
| NCI-H1563 | 0.52 | 0.517 | 0.478 | 0.534 | 0.818 | 0.97 | 0.937 | 0.998 | 0.849 | 0.581 | 0.636 | 0.631 | 0.63 |  |  |  |  |
| NCI-H1703 |  |  |  |  | 1.14 | 0.713 | 0.262 | 0.257 | 0.189 |  |  |  |  |  |  |  |  |
| NCI-H1648 |  |  |  |  |  |  |  |  |  |  |  |  |  |  | 0.235 | 0.21 | 0.267 |
| A549 |  |  |  |  | 1.12 | 1.1 | 0.948 | 1.23 | 1.1 | 0.158 | 0.169 | 0.146 | 0.263 |  |  |  |  |
| NCI-H522 | 1.33 | 0.989 | 0.93 | 0.685 |  |  |  |  |  | 0.604 | 0.646 | 0.636 | 0.644 | 1.06 | 0.737 | 1.03 | 0.812 |
| NCI-H441 | 0.343 | 0.359 | 0.27 | 0.337 |  |  |  |  |  | 0.872 | 0.84 | 0.777 | 0.828 | 0.224 | 0.209 | 0.199 | 0.212 |
| NCI-H1623 | 0.504 | 0.553 | 0.545 |  |  |  |  |  |  | 0.574 | 0.547 | 0.49 |  |  |  |  |  |
| SW 900 | 0.191 | 0.177 | 0.162 | 0.145 |  |  |  |  |  | 0.693 | 0.527 | 0.573 | 0.474 | 0.581 | 0.535 | 0.588 | 0.492 |
| EBC-1 |  |  |  |  | 0.212 | 0.213 | 0.22 | 0.202 | 0.215 |  |  |  |  |  |  |  |  |
